From US10611747B2, “Pyrone based compounds for treating bacterial infections” (FORGE THERAPEUTICS, INC., priority 2015, dated 2020)
Values after ≈ are worked out from the molar mass of the structure shown. Read-outs that look alike come from different tables or passages of the source.

What was measured:
Assay in all cases: Bacterial susceptibility testing (MIC, broth microdilution)
Assay type in all cases: cell-based
E. coli ATCC 25922 = conditions: Escherichia coli
Description: (§1) Minimal inhibitory concentrations (MIC) were determined by the broth microdilution method in accordance with the Clinical and Laboratory Standards Institute (CLSI) guidelines. In brief, organism suspensions were adjusted to a 0.5 McFarland standard to yield a final inoculum between 3×10^5 and 7×10^5 colony-forming units (CFU)/mL. Drug dilutions and inocula were made in sterile, cation adjusted Mueller-Hinton Broth (Beckton Dickinson). An inoculum volume of 100 μL was added to wells containing 100 μL of broth with 2-fold serial dilutions of drug. All inoculated microdilution trays were incubated in ambient air at 35° C. for 18-24 h. […] Performance of the assay was monitored by the use of laboratory quality-control strains and levofloxacin, a compound with a defined MIC spectrum, in accordance with CLSI guidelines.

E. coli BW25113 = conditions: Escherichia coli, no FBS, 35° C., 18-24 h
Description: as §1

E. coli delta tolC = conditions: Escherichia coli, 24 h, read-out: MIC E. coli delta tolC
Description: as §1

E. coli imp mutant = conditions: Escherichia coli, read-out: MIC E. coli imp mutant
Description: as §1

P. aeruginosa 209 = tested on: P. aeruginosa 209
Description: as §1

[1] = tested on: P. aeruginosa 210 delta mexAB-OprM; conditions: Pseudomonas aeruginosa, read-out: MIC P. aeruginosa 210 delta mexAB-OprM
Description: as §1

S. aureus ATCC 29213 = conditions: Staphylococcus aureus
Description: as §1

[2] = ATCC25922, no FBS, broth microdilution, 35° C., 18-24 h, read-out: MIC E. coli ATCC 25922-no FBS
[3] = Pseudomonas aeruginosa, 209, broth microdilution, 35° C., 18-24 h, read-out: MIC P. aeruginosa 209
[4] = ATCC29213, broth microdilution, 35° C., 18-24 h, read-out: MIC S. aureus ATCC 29213
[5] = ATCC25922, read-out: MIC E. coli ATCC 25922-no FBS
[6] = Pseudomonas aeruginosa, 209, read-out: MIC P. aeruginosa 209
[7] = ATCC29213, read-out: MIC S. aureus ATCC 29213

SMILES | MIC (E. coli ATCC 25922; [2]) [µg/mL] | MIC (E. coli BW25113) [µg/mL] | MIC (E. coli delta tolC) [µg/mL] | MIC (E. coli imp mutant) [µg/mL] | MIC (P. aeruginosa 209; [3]) [µg/mL] | MIC [1] [µg/mL] | MIC (S. aureus ATCC 29213; [4]) [µg/mL] | MIC (E. coli ATCC 25922; [5]) [µg/mL] | MIC (P. aeruginosa 209; [6]) [µg/mL] | MIC (S. aureus ATCC 29213; [7]) [µg/mL]
O=c1cc(CNc2ccc(C#CC#Cc3ccccc3)cc2)occ1O [Compound 30] | > 32 | > 32 | > 32 | 1 to 8 (≈ 2.93 to 23.4 µM) | > 32 | > 32 | 8 to 32 (≈ 23.4 to 93.7 µM) | – | – | –
O=C(c1ccc(C#Cc2ccc(NCc3occc(=O)c3O)cc2)cc1)N1CC(O)C1 [Compound 54] | > 32 | > 32 | 8 to 32 (≈ 19.2 to 76.8 µM) | > 32 | > 32 | > 32 | > 32 | – | – | –
CS(=O)(=O)Cc1cc(=O)c(O)c(COc2ccc(C#Cc3ccccc3)cc2)o1 [Compound 9, 2-((4-(2-phenylethynyl)phenoxy)methyl)-3-hydroxy-6-((methylsulfonyl)methyl)-4H-pyran-4-one] | – | > 32 | 8 to 32 (≈ 19.5 to 78 µM) | 8 to 32 (≈ 19.5 to 78 µM) | – | > 32 | – | > 32 | > 32 | 8 to 32 (≈ 19.5 to 78 µM)
O=C(NCCO)c1ccc(C#CC#Cc2ccc(NCc3occc(=O)c3O)cc2)cc1 [Compound 44] | 1 to 8 (≈ 2.33 to 18.7 µM) | 1 to 8 (≈ 2.33 to 18.7 µM) | < 1 | < 1 | > 32 | 8 to 32 (≈ 18.7 to 74.7 µM) | > 32 | – | – | –
CNC(=O)c1ccc(-c2ccc(CCc3oc(CS(C)(=O)=O)cc(=O)c3O)cc2)cc1 [Compound 7, 4′-(2-(3-hydroxy-6-((methylsulfonyl)methyl)-4-oxo-4H-pyran-2-yl)ethyl)-N-methyl-[1,1′-biphenyl]-4-carboxamide] | – | > 32 | > 32 | > 32 | – | > 32 | – | > 32 | > 32 | > 32
CNC(=O)c1ccc(-c2ccc(NCc3oc(CNS(C)(=O)=O)cc(=O)c3O)cc2)cc1 [Compound 1, 4′-(((3-hydroxy-6-(methylsulfonamidomethyl)-1-oxo-4H-pyran-2-yl)methyl)amino)-N-methyl-[1,1′-biphenyl]-4-carboxamide] | > 32 | > 32 | > 32 | > 32 | > 32 | > 32 | > 32 | – | – | –
CS(=O)(=O)Cc1cc(=O)c(O)c(CNc2ccc(C#CC#Cc3ccccc3)cc2)o1 [Compound 5, 2-((4-(4-phenylbuta-1,3-diynyl)phenylamino)methyl)-3-hydroxy-6-((methylsulfonyl)methyl)-4H-pyran-4-one] | – | 1 to 8 (≈ 2.31 to 18.5 µM) | 1 to 8 (≈ 2.31 to 18.5 µM) | 1 to 8 (≈ 2.31 to 18.5 µM) | – | > 32 | – | 8 to 32 (≈ 18.5 to 73.8 µM) | > 32 | > 32
O=C(O)c1ccc(C#Cc2ccc(NCc3occc(=O)c3O)cc2)cc1 [Compound 53] | > 32 | > 32 | 1 to 8 (≈ 2.77 to 22.1 µM) | > 32 | > 32 | > 32 | > 32 | – | – | –
O=C(c1ccc(C#CC#Cc2ccc(NCc3occc(=O)c3O)cc2)cc1)N1CCC[C@H]1CO [Compound 50] | 1 to 8 (≈ 2.13 to 17.1 µM) | 1 to 8 (≈ 2.13 to 17.1 µM) | – | – | – | – | – | – | – | –
CN1CC2CN(C(=O)c3ccc(C#CC#Cc4ccc(NCc5occc(=O)c5O)cc4)cc3)CC2C1 (stereo not shown) [Compound 41] | 1 to 8 (≈ 2.03 to 16.2 µM) | 1 to 8 (≈ 2.03 to 16.2 µM) | < 1 | 1 to 8 (≈ 2.03 to 16.2 µM) | > 32 | 8 to 32 (≈ 16.2 to 64.8 µM) | > 32 | – | – | –
CS(=O)(=O)Cc1cc(=O)c(O)c(CNc2ccc(C#Cc3ccccc3)cc2)o1 [Compound 2, 2-((4-(2-phenylethynyl)phenylamino)methyl)-3-hydroxy-6-((methylsulfonyl)methyl)-4H-pyran-4-one] | > 32 | > 32 | 8 to 32 (≈ 19.5 to 78.2 µM) | > 32 | > 32 | > 32 | > 32 | – | – | –
O=C(NCCN1CCOCC1)c1ccc(C#CC#Cc2ccc(NCc3occc(=O)c3O)cc2)cc1 [Compound 46] | 8 to 32 (≈ 16.1 to 64.3 µM) | 1 to 8 (≈ 2.01 to 16.1 µM) | < 1 | 1 to 8 (≈ 2.01 to 16.1 µM) | > 32 | > 32 | > 32 | – | – | –
CN1CC2CN(C(=O)c3ccc(C#CC#Cc4ccc(NCc5occc(=O)c5O)cc4)cc3)C[C@@H]2C1 (stereo partly shown) [Compound 42] | 1 to 8 (≈ 2.03 to 16.2 µM) | 1 to 8 (≈ 2.03 to 16.2 µM) | < 1 | 1 to 8 (≈ 2.03 to 16.2 µM) | > 32 | 8 to 32 (≈ 16.2 to 64.8 µM) | > 32 | – | – | –
CN(C)[C@@H]1CCN(C(=O)c2ccc(C#CC#Cc3ccc(NCc4occc(=O)c4O)cc3)cc2)C1 [Compound 37] | 1 to 8 (≈ 2.08 to 16.6 µM) | 1 to 8 (≈ 2.08 to 16.6 µM) | < 1 | 1 to 8 (≈ 2.08 to 16.6 µM) | > 32 | > 32 | > 32 | – | – | –
COC(=O)c1ccc(C#CC#Cc2ccc(NCc3occc(=O)c3O)cc2)cc1 [Compound 31] | > 32 | > 32 | 1 to 8 (≈ 2.5 to 20 µM) | > 32 | > 32 | > 32 | > 32 | – | – | –
O=C(c1ccc(C#CC#Cc2ccc(NCc3occc(=O)c3O)cc2)cc1)N1CCN2CCCC2C1 (stereo not shown) [Compound 43] | 1 to 8 (≈ 2.03 to 16.2 µM) | 1 to 8 (≈ 2.03 to 16.2 µM) | < 1 | 1 to 8 (≈ 2.03 to 16.2 µM) | > 32 | 8 to 32 (≈ 16.2 to 64.8 µM) | > 32 | – | – | –
CNC(=O)c1ccc(-c2ccc(OCc3oc(CS(C)(=O)=O)cc(=O)c3O)cc2)cc1 [Compound 8, 4′-((3-hydroxy-6-((methylsulfonyl)methyl)-4-oxo-4H-pyran-2-yl)methoxy)-N-methyl-[1,1′-biphenyl]-4-carboxamide] | – | > 32 | > 32 | > 32 | – | > 32 | – | > 32 | > 32 | > 32
O=C(c1ccc(C#CC#Cc2ccc(NCc3occc(=O)c3O)cc2)cc1)N1CCNCC1 [Compound 48] | 1 to 8 (≈ 2.21 to 17.6 µM) | 1 to 8 (≈ 2.21 to 17.6 µM) | < 1 | 1 to 8 (≈ 2.21 to 17.6 µM) | > 32 | 8 to 32 (≈ 17.6 to 70.6 µM) | > 32 | – | – | –
O=C(NC1CC1)c1ccc(C#CC#Cc2ccc(NCc3occc(=O)c3O)cc2)cc1 [Compound 34] | 1 to 8 (≈ 2.36 to 18.8 µM) | 1 to 8 (≈ 2.36 to 18.8 µM) | < 1 | 1 to 8 (≈ 2.36 to 18.8 µM) | > 32 | > 32 | > 32 | – | – | –
O=C(NCc1cc(=O)c(O)co1)c1ccc(-c2ccccc2)cc1 [Compound 29] | > 32 | > 32 | > 32 | > 32 | > 32 | > 32 | > 32 | – | – | –
O=C(c1ccc(C#CC#Cc2ccc(NCc3occc(=O)c3O)cc2)cc1)N1CCCCC1 [Compound 33] | 8 to 32 (≈ 17.7 to 70.7 µM) | 1 to 8 (≈ 2.21 to 17.7 µM) | < 1 | 1 to 8 (≈ 2.21 to 17.7 µM) | > 32 | > 32 | > 32 | – | – | –
CS(=O)(=O)Cc1cc(=O)c(O)c(COc2ccc(C#CC#Cc3ccccc3)cc2)o1 [Compound 11] | – | – | – | – | – | – | – | > 32 | > 32 | 1 to 8 (≈ 2.3 to 18.4 µM)
